Assay results as given in US11899025B2, “Pharmaceutical composition for preventing or treating neurodegenerative diseases comprising COX2 acetylating agent as active ingredient” (KYUNGPOOK NATIONAL UNIVERSITY INDUSTRY-ACADEMIC COOPERATION …, priority 2018, dated 2024).

Legend:
APP/PS1 mice = assay: Alzheimer's animal model (APP/PS1 mice): immunofluorescence, Thioflavin S, Morris Water Maze; type: in vivo, mouse; details: 7-month-old APP/PS1 mice, 5 mg/kg N-acetyl sphingosine, 1 mg/kg FTY720 or 3 uM S1P daily for 4 weeks, intraperitoneal
Text: (§1) It has been approved for mouse experiments by the Kyungpook National University Institutional Animal Care and Use Committee (IACUC). A transgenic mouse line overexpressing APPswe (hAPP695swe) or PS1 (presenilin-1M146V) based on C57BL/6 mice (Charles River, UK) was used. [Hereinafter, APP mouse: mouse overexpressing APPswe, PS1 mouse: mouse overexpressing presenilin-1M146V; GlaxoSmithKline]. As an Alzheimer's (AD) animal model, SphK1 tg (SphK1 gene overexpressing mouse) was crossed with APP mice and APP/PS1 mice to prepare APP/PS1/SphK1 tg mice. Niemanpick (NP-C) animal model, Balb/C (Orient, Wild type), NPC mutant mouse lacking NPC1 gene (Provided by Riken, Japan, NP-C mice; less weight than normal mice of the same age, and severe motor function loss from 4 to 6 weeks of age, limb tremors and seizures appear, and lifespan is approximately 9 to 10 weeks. Is) was used. As an animal model for amyotrophic lateral sclerosis (ALS), a transgenic mouse (FUS) line overexpressing RUS R521C based on C57BL/6 mice (Charles River, UK) was used.
(§2) After fixing the cerebral and hippocampus of the mouse, anti-20G10 (mouse, 1:1000) against amyloid-β (Aβ) 42 and anti-G30 (rabbit, 1:1000) against Aβ 40, anti-MAP2 (chicken, 1:2000), anti-Synaptophysin (mouse, 1:100), anti-Synapsin1 (rabbit, 1:500), anti-PSD95 (mouse, 1:100), anti-Iba-1 (rabbit, 1:500), Anti-GFAP (rabbit, 1:500) was cultured together. The site was analyzed using a laser scanning confocal microscope or Olympus BX51 microscope equipped with Fluoview SV1000 imaging software (Olympus FV1000, Japan). Metamorph software (Molecular Devices) was used to quantify the percentage of the area of the stained area relative to the area of the total tissue.
In order to confirm the potential effect on learning and memory, MWM (Morris water maze) and fear conditioning experiments were performed. MWM learned the task 4 times a day for 10 days for the mice, the platform was removed on the 11th day, and a probe trial was performed. On the first day of Fear conditioning, the mice were placed in a conditioning chamber, and sound stimulation (10 kHz, 70 dB) and electrical stimulation (0.3 mA, 1 s) were given. On the second day, memory for the space was checked without stimulation in the same conditioning chamber as on the first day, and on the third day, a memory test for fear was performed when only sound stimulation was given in another conditioning chamber. An open field test was performed to evaluate motor ability and immediate activity. In the open field test, the mice were placed in a square box for 10 minutes to measure the overall exercise power, time, and distance.
In order to measure the neuroinflammatory resolution factor, after culturing neurons from mouse cerebrum, CM was prepared by treatment with 10 nM N-acetyl sphingosine 1 phosphate (Toronto Research chemicals, C262710) and N-acetyl sphingosine (Sigma, 01912). For COX2 acetylation analysis, neurons were cultured from mouse cerebrum and then treated with 2 uCi [^14C]N-acetyl sphingosine (ARC, ARC1024). In addition, for in vivo experiments, 7-month-old APP/PS1 mice were injected with 5 mg/kg N-acetyl sphingosine (Sigma, 01912), 1 mg/kg FTY720 and 3 uM S1P daily for 4 weeks via intraperitoneal injection. 1 month-old NPC mice were injected with 5 mg/kg N-acetyl sphingosine (Sigma, 01912) and 2-month-old FUS mice with 30 mg/kg N-acetyl sphingosine (Sigma, 01912) daily for 4 weeks via subcutaneous injection.
The present inventors confirmed AD lesions by injecting N-acetyl sphingosine, one of the COX2 acetylating agents identified through the above experiment, into an APP/PS1 animal model. First, in order to determine the effect of N-acetyl sphingosine on the neuroinflammatory response by secreting neuroinflammatory resolution factor, changes in microglia and astrocytes were observed. […]

FUS R521C mice = assay: amyotrophic lateral sclerosis animal model (FUS R521C mice): immunofluorescence, Tail suspension, Rota-rod, Hanging wired test; type: in vivo, mouse; details: 2-month-old FUS mice, 30 mg/kg daily for 4 weeks, subcutaneous
Text: as §1, §2
To check the motor ability of each experimental group mice, a Rota-rod, Beam test, Tail suspension test, and Hanging wired test were performed. […] The endurance time of the experimental animal was measured in seconds, and the average value was recorded. […] In the Beam test, the time taken to move to the end point after placing the mouse at the start point of a 12 mm wide bar was measured. […]

In the case of `CCCCCCCCCCCCC/C=C/[C@@H](O)[C@H](CO)NC(C)=O` [N-acetyl sphingosine], the “microglia (Iba1) in brain cortex vs APP/PS1 mice” value (APP/PS1 mice; FIG. 9a) is reported as “remarkable decrease”, the “astrocytes (GFAP) in brain cortex vs APP/PS1 mice” value (APP/PS1 mice; FIG. 9b) is reported as “remarkable decrease” and the “amount of Aβ / Aβ deposition (Thioflavin S) vs APP/PS1 mice” value (APP/PS1 mice; FIG. 9c) is reported as “significantly lower”. For the same compound, the “memory and cognition (Morris Water Maze) vs APP/PS1 mice” value (APP/PS1 mice; FIG. 9d) was “improved”, the “activity of microglia (Iba1) vs FUS R521C mice” value (FUS R521C mice; FIG. 11a) was “decreased” and the “activity of astrocytes (GFAP) vs FUS R521C mice” value (FUS R521C mice; FIG. 11b) was “decreased”. For the same compound, the “exercise capacity (Tail suspension, Rota-rod, Hanging wired test) vs FUS R521C mice” value (FUS R521C mice; FIGS. 11c to e) was “improved”.
